From patent US20260060250A1, “HERBICIDAL PYRIDONE DERIVATIVES” (SYNGENTA CROP PROTECTION AG, priority 2022, published 2026)

Columns and labels:
Format in all cases: in vivo
Conditions in all cases: evaluated after 13 days
[1] = tested on: Amaranthus palmeri (AMAPA); assay: Pre-emergence Test (Table B1)
Zea mays (ZEAMX) [2] = assay: Pre-emergence Test (Table B1); design: key: 5=81-100%; 4=61-80%; 3=41-60%; 2=21-40%; 1=0-20%; 0=inactive
[3] = tested on: Amaranthus retroflexus (AMARE); assay: Post-emergence Test (Table B2)
Procedure: (§1) Seeds of a variety of test species are sown in standard soil in pots (Amaranthus palmeri (AMAPA), Setaria faberi (SETFA), Echinochloa crus-galli (ECHCG), (Amaranthus retroflexus (AMARE), Zea mays (ZEAMX), Ipomoea hederacea (IPOHE)). After 8 days cultivation under controlled conditions in a glasshouse (at 24° C./16° C., day/night; 14 hours light; 65% humidity), the plants are sprayed with an aqueous spray solution derived from the formulation of the technical active ingredient in acetone/water (50:50) solution containing 0.5% Tween 20 (polyoxyethelyene sorbitan monolaurate, CAS RN 9005-64-5). Compounds are applied at 1000 g/ha unless otherwise stated. The test plants are then grown in a glasshouse under controlled conditions in a glasshouse (at 24° C./16° C., day/night; 14 hours light; 65% humidity) and watered twice daily. After 13 days the test is evaluated for the percentage damage caused to the plant.

Setaria faberi (SETFA) [4] = assay: Post-emergence Test (Table B2)
Procedure: as §1

[5] = tested on: Amaranthus palmeri (AMAPA); assay: Post-emergence Test (Table B2)
Procedure: as §1

[6] = tested on: Ipomoea hederacea (IPOHE); assay: Pre-emergence Test (Table B1); design: key: 5=81-100%; 4=61-80%; 3=41-60%; 2=21-40%; 1=0-20%; 0=inactive
Setaria faberi (SETFA) [7] = assay: Pre-emergence Test (Table B1); design: key: 5=81-100%; 4=61-80%; 3=41-60%; 2=21-40%; 1=0-20%; 0=inactive
[8] = tested on: Amaranthus retroflexus (AMARE); assay: Pre-emergence Test (Table B1)
[9] = tested on: Echinochloa crus-galli (ECHCG); assay: Post-emergence Test (Table B2); design: key: 5=81-100%; 4=61-80%; 3=41-60%; 2=21-40%; 1=0-20%; 0=inactive
Procedure: as §1

[10] = tested on: Ipomoea hederacea (IPOHE); assay: Post-emergence Test (Table B2); design: key: 5=81-100%; 4=61-80%; 3=41-60%; 2=21-40%; 1=0-20%; 0=inactive
Procedure: as §1

Zea mays (ZEAMX) [11] = assay: Post-emergence Test (Table B2); design: key: 5=81-100%; 4=61-80%; 3=41-60%; 2=21-40%; 1=0-20%; 0=inactive
Procedure: as §1

[12] = tested on: Echinochloa crus-galli (ECHCG); assay: Pre-emergence Test (Table B1); design: key: 5=81-100%; 4=61-80%; 3=41-60%; 2=21-40%; 1=0-20%; 0=inactive
[13] = lower rate of 250 g per hectare

SMILES | percentage damage caused to the plant, AMARE [3, 13] | percentage damage caused to the plant, SETFA (Setaria faberi (SETFA) [4]; [13]) | percentage damage caused to the plant, AMAPA [5, 13] | percentage damage caused to the plant, ECHCG [9, 13] | percentage damage caused to the plant, IPOHE [10, 13] | percentage damage caused to the plant, ZEAMX (Zea mays (ZEAMX) [11]; [13]) | percentage damage caused to the plant, AMAPA ([1]; 1000 g/ha) | percentage damage caused to the plant, ZEAMX (Zea mays (ZEAMX) [2]; 1000 g/ha) | percentage damage caused to the plant, AMARE ([3]; 1000 g/ha) | percentage damage caused to the plant, SETFA (Setaria faberi (SETFA) [4]; 1000 g/ha) | percentage damage caused to the plant, AMAPA ([5]; 1000 g/ha) | percentage damage caused to the plant, IPOHE ([6]; 1000 g/ha) | percentage damage caused to the plant, SETFA (Setaria faberi (SETFA) [7]; 1000 g/ha) | percentage damage caused to the plant, AMARE ([8]; 1000 g/ha) | percentage damage caused to the plant, ECHCG ([9]; 1000 g/ha) | percentage damage caused to the plant, IPOHE ([10]; 1000 g/ha) | percentage damage caused to the plant, ZEAMX (Zea mays (ZEAMX) [11]; 1000 g/ha) | percentage damage caused to the plant, ECHCG ([12]; 1000 g/ha) | also measured
CCn1c(C)c(-c2cc(C(=O)OC(C)C#N)c(Cl)cc2F)c(=O)c(C(=O)O)c1-c1ccc(Cl)c(Cl)c1 (centres unmarked) [Compound 44, 5-[4-chloro-5-(1-cyanoethoxycarbonyl)-2-fluoro-phenyl]-2-(3,4-dichlorophenyl)-1-ethyl-6-methyl-4-oxo-pyridine-3-carboxylic acid] | 5 (5=81-100%) | 3 (3=41-60%) | 5 (5=81-100%) | 3 (3=41-60%) | 4 (4=61-80%) | 2 (2=21-40%) |  |  |  |  |  |  |  |  |  |  |  |  | percentage damage caused to the plant, AMAPA [1, 13]: 5 (5=81-100%); percentage damage caused to the plant, ZEAMX (Zea mays (ZEAMX) [2]; [13]): 0; percentage damage caused to the plant, IPOHE [6, 13]: 2 (2=21-40%); percentage damage caused to the plant, SETFA (Setaria faberi (SETFA) [7]; [13]): 0; percentage damage caused to the plant, AMARE [8, 13]: 5 (5=81-100%); percentage damage caused to the plant, ECHCG [12, 13]: 0
C=CCC(C)OC(=O)c1ccc(F)c(-c2c(C)n(CC)c(-c3ccc(Cl)c(Cl)c3)c(C(=O)O)c2=O)c1 (centres unmarked) [Compound 13, 2-(3,4-dichlorophenyl)-1-ethyl-5-[2-fluoro-5-(1-methylbut-3-enoxycarbonyl)phenyl]-6-methyl-4-oxo-pyridine-3-carboxylic acid] |  |  |  |  |  |  | 4 (4=61-80%) | 0 | 4 (4=61-80%) | 2 (2=21-40%) | 4 (4=61-80%) | 0 | 2 (2=21-40%) | 4 (4=61-80%) | 1 (1=0-20%) | 2 (2=21-40%) | 2 (2=21-40%) | 1 (1=0-20%) | 
C#CC(C)OC(=O)c1cc(-c2c(C)n(CC)c(-c3ccc(Cl)c(Cl)c3)c(C(=O)O)c2=O)c(F)cc1Cl (centres unmarked) [Compound 20, 5-[4-chloro-2-fluoro-5-(1-methylprop-2-ynoxycarbonyl)phenyl]-2-(3,4-dichlorophenyl)-1-ethyl-6-methyl-4-oxo-pyridine-3-carboxylic acid] |  |  |  |  |  |  | 5 (5=81-100%) | 0 | 5 (5=81-100%) | 5 (5=81-100%) | 5 (5=81-100%) | 0 | 3 (3=41-60%) | 5 (5=81-100%) | 5 (5=81-100%) | 4 (4=61-80%) | 4 (4=61-80%) | 3 (3=41-60%) | 
C#CCC(C)OC(=O)c1ccc(F)c(-c2c(C)n(CC)c(-c3ccc(Cl)c(Cl)c3)c(C(=O)O)c2=O)c1 (centres unmarked) [Compound 17, 2-(3,4-dichlorophenyl)-1-ethyl-5-[2-fluoro-5-(1-methylbut-3-ynoxycarbonyl)phenyl]-6-methyl-4-oxo-pyridine-3-carboxylic acid] |  |  |  |  |  |  | 5 (5=81-100%) | 1 (1=0-20%) | 5 (5=81-100%) | 2 (2=21-40%) | 5 (5=81-100%) | 2 (2=21-40%) | 2 (2=21-40%) | 5 (5=81-100%) | 2 (2=21-40%) |  | 1 (1=0-20%) | 1 (1=0-20%) | 
CCn1c(C)c(-c2cc(C(=O)OC(C)C3CC3)ccc2F)c(=O)c(C(=O)O)c1-c1ccc(Cl)c(Cl)c1 (centres unmarked) [Compound 8, 5-[5-(1-cyclopropylethoxycarbonyl)-2-fluoro-phenyl]-2-(3,4-dichlorophenyl)-1-ethyl-6-methyl-4-oxo-pyridine-3-carboxylic acid] |  |  |  |  |  |  | 4 (4=61-80%) | 0 | 4 (4=61-80%) | 2 (2=21-40%) | 5 (5=81-100%) | 0 | 0 | 5 (5=81-100%) | 1 (1=0-20%) | 1 (1=0-20%) | 3 (3=41-60%) | 0 | 
CCn1c(C)c(-c2cc(C(=O)OC(C)C3CCCC3)ccc2F)c(=O)c(C(=O)O)c1-c1ccc(Cl)c(Cl)c1 (centres unmarked) [Compound 16, 5-[5-(1-cyclopentylethoxycarbonyl)-2-fluoro-phenyl]-2-(3,4-dichlorophenyl)-1-ethyl-6-methyl-4-oxo-pyridine-3-carboxylic acid] |  |  |  |  |  |  |  |  | 5 (5=81-100%) | 1 (1=0-20%) | 4 (4=61-80%) |  |  |  | 0 | 0 | 1 (1=0-20%) |  | 
CCn1c(C)c(-c2cc(C(=O)OC(C)CN(C)C)ccc2F)c(=O)c(C(=O)O)c1-c1ccc(Cl)c(Cl)c1 (centres unmarked) [Compound 6, 2-(3,4-dichlorophenyl)-5-[5-[2-(dimethylamino)-1-methyl-ethoxy]carbonyl-2-fluoro-phenyl]-1-ethyl-6-methyl-4-oxo-pyridine-3-carboxylic acid] |  |  |  |  |  |  |  |  | 3 (3=41-60%) | 1 (1=0-20%) | 4 (4=61-80%) |  |  |  | 1 (1=0-20%) | 0 | 1 (1=0-20%) |  | 
C=CC(C)OC(=O)c1ccc(F)c(-c2c(C)n(CC)c(-c3ccc(Cl)c(Cl)c3)c(C(=O)O)c2=O)c1 (centres unmarked) [Compound 5, 2-(3,4-dichlorophenyl)-1-ethyl-5-[2-fluoro-5-(1-methylallyloxycarbonyl)phenyl]-6-methyl-4-oxo-pyridine-3-carboxylic acid] | 2 (2=21-40%) | 1 (1=0-20%) | 3 (3=41-60%) | 0 | 1 (1=0-20%) | 2 (2=21-40%) |  |  |  |  |  |  |  |  |  |  |  |  | 
CCn1c(C)c(-c2cc(C(=O)OC(C)C#N)ccc2F)c(=O)c(C(=O)O)c1-c1ccc(Cl)c(Cl)c1 (centres unmarked) [Compound 41, 5-[5-(1-cyanoethoxycarbonyl)-2-fluoro-phenyl]-2-(3,4-dichlorophenyl)-1-ethyl-6-methyl-4-oxo-pyridine-3-carboxylic acid] | 2 (2=21-40%) | 2 (2=21-40%) | 2 (2=21-40%) | 0 | 1 (1=0-20%) | 0 |  |  |  |  |  |  |  |  |  |  |  |  | 
